This is an account of results in ChEMBL document CHEMBL1133442, “Symmetrical bis(heteroarylmethoxyphenyl)alkylcarboxylic acids as inhibitors of leukotriene biosynthesis” (J Med Chem, 2000).

The species named for one assay is Homo sapiens. Description: Inhibition of calcium ionophore (A-23187) stimulated leukotriene B4 (LTB4) formation in human neutrophils at 390 nM. It is filed as functional.
Another assay relates to Rattus norvegicus. Description: Inhibition of leukotriene production in an ionophore-induced rat pleurisy model at 3 mg/kg. It is filed as functional. The conditions noted are these: for inhibition in vivo at 3 mg/kg: Rattus norvegicus.

The IC50 is the point on the concentration scale where inhibition reaches its midpoint. Usually inhibition in vivo stands for the percentage by which the read-out fell short of the control. Higher therefore signals a strong effect. As usually defined, the Inhibition is the percentage by which the read-out fell short of the control. Higher therefore signals strong suppression.

Turning to `CC(/C=C/C(=O)O)=N\OC(c1ccc(OCc2ccc3ccccc3n2)cc1)c1ccc(OCc2ccc3ccccc3n2)cc1`, the IC50 in the assay listed under Homo sapiens (Homo sapiens) is 30 nM. The same compound registered an inhibition in vivo at 3 mg/kg in the assay on Rattus norvegicus of 27%.
On to `CC(C(=O)O)(c1ccc(OCc2ccc3ccccc3n2)cc1)c1ccc(OCc2ccc3ccccc3n2)cc1`, for which the IC50 in the assay filed under Homo sapiens (Homo sapiens) amounted to 32 nM. The compound further gave an Inhibition with Rattus norvegicus of 25%.
The corresponding values for `Cn1c(COc2ccc(C(C)(CCC(=O)[O-])c3ccc(OCc4ccc5ccccc5n4)cc3)cc2)nc2ccccc21.[Na+]` (configuration not stated) are 90 nM and 10%.
On to `CC(CCCC(=O)O)(c1ccc(OCc2ccc3ccccc3n2)cc1)c1ccc(OCc2ccc3ccccc3n2)cc1` [listing 1 of 2 here], for which the half-maximal inhibitory concentration (IC50) in the assay listed under Homo sapiens was found to be 43 nM. Moreover, the Inhibition in the assay on Rattus norvegicus is 32%.
In the assay on Rattus norvegicus, `CC(CCC(=O)[O-])(c1ccc(OCc2ccc3ccccc3c2)cc1)c1ccc(OCc2ccc3ccccc3n2)cc1.[Na+]` (configuration not stated) gave an Inhibition of 40%.
As to `O=C(O)CSC(c1ccccc1)(c1ccc(OCc2ccc3ccccc3n2)cc1)c1ccc(OCc2ccc3ccccc3n2)cc1`, the concentration for half-maximal inhibition (IC50) in the assay listed under Homo sapiens (Homo sapiens) amounted to 87 nM.
With `CC(C)(C(=O)O)C(c1ccc(OCc2ccc3ccccc3n2)cc1)c1ccc(OCc2ccc3ccccc3n2)cc1`, in the assay filed under Homo sapiens (Homo sapiens), the 50% inhibitory concentration (IC50) turned out to be 100 nM. Also, in the assay on Rattus norvegicus, the inhibition in vivo at 3 mg/kg came to 50%.
As for `O=C(O)CO/N=C/C(c1ccc(OCc2ccc3ccccc3n2)cc1)c1ccc(OCc2ccc3ccccc3n2)cc1`, the IC50 in the assay listed under Homo sapiens (Homo sapiens) came out at 35 nM.
On to `O=C(O)C1CCC(c2ccc(OCc3ccc4ccccc4n3)cc2)(c2ccc(OCc3ccc4ccccc4n3)cc2)CC1`, for which the IC50 in the assay filed under Homo sapiens was found to be 60 nM. The Inhibition in the assay on Rattus norvegicus was found to be 0%.
Consider `CC(CC(=O)O)(c1ccc(OCc2ccc3ccccc3n2)cc1)c1ccc(OCc2ccc3ccccc3n2)cc1`, for which the IC50 in the assay listed under Homo sapiens (Homo sapiens) was found to be 170 nM. The same compound yielded an inhibition in vivo at 3 mg/kg in the assay with Rattus norvegicus of 0%.
As to `CC(CCC(=O)O)(c1ccc(OCc2nc3ccccc3s2)cc1)c1ccc(OCc2nc3ccccc3s2)cc1` [listing 1 of 2 here], the IC50 in the assay filed under Homo sapiens (Homo sapiens) was 46 nM. Also, in the assay on Rattus norvegicus, the inhibition in vivo at 3 mg/kg stood at 0%.
Consider `O=C(O)CC(c1ccc(OCc2ccc3ccccc3n2)cc1)c1ccc(OCc2ccc3ccccc3n2)cc1`, for which the 50% inhibitory concentration (IC50) in the assay filed under Homo sapiens (Homo sapiens) was 60 nM. In the assay with Rattus norvegicus, this compound registered an inhibition in vivo at 3 mg/kg of 17%.
The matching figures for `CC(CC(c1ccc(OCc2ccc3ccccc3n2)cc1)c1ccc(OCc2ccc3ccccc3n2)cc1)C(=O)O` (configuration not stated): 46 nM and 53%.
As to `CC(CCC(=O)O)(c1ccc(OCc2ccc3ccccc3n2)cc1)c1ccc(OCc2nc3ccccc3s2)cc1` (configuration not stated), in the assay listed under Homo sapiens (Homo sapiens), the concentration for half-maximal inhibition (IC50) came to 52 nM.
Take `O=C([O-])CC(c1ccc(OCc2ccc3ccccc3n2)cc1)c1ccc(OCc2ccc3ccccc3n2)cc1.[Na+]`: the IC50 in the assay listed under Homo sapiens worked out at 70 nM. In the assay on Rattus norvegicus, the Inhibition was found to be 30%.
For the compound `CC(CCC(=O)O)(c1ccc(OCc2nc3ccccc3s2)cc1)c1ccc(OCc2nc3ccccc3s2)cc1` [listing 2 of 2 here], the IC50 in the assay listed under Homo sapiens is 50 nM.
With `O=C(O)C=C(c1ccc(OCc2ccc3ccccc3n2)cc1)c1ccc(OCc2ccc3ccccc3n2)cc1`, the IC50 in the assay filed under Homo sapiens (Homo sapiens) was 50 nM. This compound gave an inhibition in vivo at 3 mg/kg in the assay with Rattus norvegicus of 11%.
In the case of `O=C(O)CO/N=C/C=C(c1ccc(OCc2ccc3ccccc3n2)cc1)c1ccc(OCc2ccc3ccccc3n2)cc1`, the IC50 in the assay listed under Homo sapiens (Homo sapiens) worked out at 26 nM. Moreover, 3 mg/kg produced 10% inhibition in vivo in the assay on Rattus norvegicus.
Take `C/C(=N\OCC=C(c1ccc(OCc2ccc3ccccc3n2)cc1)c1ccc(OCc2ccc3ccccc3n2)cc1)C(=O)O`: in the assay listed under Homo sapiens (Homo sapiens), the half-inhibitory concentration (IC50) was found to be 20 nM. Besides, the inhibition in vivo at 3 mg/kg in the assay on Rattus norvegicus was 42%.
`Cn1c(COc2ccc(C(C)(CCC(=O)O)c3ccc(OCc4ccc5ccccc5n4)cc3)cc2)nc2ccccc21` (configuration not stated): the concentration for half-maximal inhibition (IC50) in the assay filed under Homo sapiens amounted to 80 nM. In the assay on Rattus norvegicus, this compound yielded an Inhibition of 0%.
As for `OC(c1ccc(OCc2ccc3ccccc3n2)cc1)c1ccc(OCc2ccc3ccccc3n2)cc1`, the IC50 in the assay filed under Homo sapiens (Homo sapiens) came out at 170 nM. Further, 3 mg/kg produced 2% inhibition in vivo in the assay on Rattus norvegicus.
The corresponding values for `CC(CCC(=O)O)(c1ccc(OCc2ccc3cc(F)ccc3n2)cc1)c1ccc(OCc2ccc3cc(F)ccc3n2)cc1` are 40 nM and 42%.
`CC(C)(CO/N=C/C(=O)O)C(c1ccc(OCc2ccc3ccccc3n2)cc1)c1ccc(OCc2ccc3ccccc3n2)cc1`: the IC50 in the assay filed under Homo sapiens (Homo sapiens) turned out to be 34 nM. Also, in the assay with Rattus norvegicus, the inhibition in vivo at 3 mg/kg is 27%.
The corresponding values for `CC(CCCC(=O)O)(c1ccc(OCc2ccc3ccccc3n2)cc1)c1ccc(OCc2ccc3ccccc3n2)cc1` [listing 2 of 2 here] are 32 nM and 35%.
In the assay on Rattus norvegicus, `O=C(O)CSC(c1ccc(OCc2ccc3ccccc3n2)cc1)(c1ccc(OCc2ccc3ccccc3n2)cc1)c1cccs1` displayed an inhibition in vivo at 3 mg/kg of 80%.
With `O=C(O)C(c1ccc(OCc2ccc3ccccc3n2)cc1)c1ccc(OCc2ccc3ccccc3n2)cc1`, in the assay listed under Homo sapiens (Homo sapiens), the 50% inhibitory concentration (IC50) was 60 nM.
For `CC(C(=O)[O-])(c1ccc(OCc2ccc3ccccc3n2)cc1)c1ccc(OCc2ccc3ccccc3n2)cc1.[Na+]`, in the assay filed under Homo sapiens, the 50% inhibitory concentration (IC50) turned out to be 37 nM. This compound yielded an Inhibition in the assay with Rattus norvegicus of 46%.
With `CCOC(=O)C1CCC(c2ccc(OCc3ccc4ccccc4n3)cc2)(c2ccc(OCc3ccc4ccccc4n3)cc2)CC1`, the IC50 in the assay listed under Homo sapiens (Homo sapiens) is 1900 nM.
Turning to `CC(CCCO/N=C/C(=O)O)(c1ccc(OCc2ccc3ccccc3n2)cc1)c1ccc(OCc2ccc3ccccc3n2)cc1`, the IC50 in the assay listed under Homo sapiens (Homo sapiens) stood at 30 nM. In the assay on Rattus norvegicus, this compound registered an inhibition in vivo at 3 mg/kg of 0%.
The matching figures for `O=C(O)CON=C(c1ccc(OCc2ccc3ccccc3n2)cc1)c1ccc(OCc2ccc3ccccc3n2)cc1`: 32 nM and 0%.
Turning to `C/C(=N\OCCC#CC(O)(c1ccc(OCc2ccc3ccccc3n2)cc1)c1ccc(OCc2ccc3ccccc3n2)cc1)C(=O)O`, in the assay filed under Homo sapiens (Homo sapiens), the half-maximal inhibitory concentration (IC50) is 59 nM. Besides, at 3 mg/kg the inhibition in vivo in the assay with Rattus norvegicus was 40%.
For the compound `C/C(=N\OCCCC(C)(c1ccc(OCc2ccc3ccccc3n2)cc1)c1ccc(OCc2ccc3ccccc3n2)cc1)C(=O)O`, the 50% inhibitory concentration (IC50) in the assay listed under Homo sapiens (Homo sapiens) came to 35 nM. Further, at 3 mg/kg the inhibition in vivo in the assay on Rattus norvegicus was 4%.
On to `O=C([O-])C=C(c1ccc(OCc2ccc3ccccc3n2)cc1)c1ccc(OCc2ccc3ccccc3n2)cc1.[Na+]`, for which the IC50 in the assay filed under Homo sapiens worked out at 40 nM. This compound came in with an Inhibition in the assay on Rattus norvegicus of 19%.
With `CC(CCC(=O)O)(c1ccc(OCc2ccc3ccccc3c2)cc1)c1ccc(OCc2ccc3ccccc3c2)cc1`, the IC50 in the assay filed under Homo sapiens (Homo sapiens) came to 830 nM.
Consider `O=C(O)/C=N/OC(c1ccc(OCc2ccc3ccccc3n2)cc1)c1ccc(OCc2ccc3ccccc3n2)cc1`, for which the IC50 in the assay filed under Homo sapiens (Homo sapiens) came to 68 nM. This compound showed an inhibition in vivo at 3 mg/kg in the assay on Rattus norvegicus of 37%.
As to `O=C([O-])C1CCC(c2ccc(OCc3ccc4ccccc4n3)cc2)(c2ccc(OCc3ccc4ccccc4n3)cc2)CC1.[Na+]`, in the assay filed under Homo sapiens (Homo sapiens), the half-inhibitory concentration (IC50) was 47 nM. The Inhibition in the assay on Rattus norvegicus amounted to 18%.
For `CC(CC/C=N\OCC(=O)O)(c1ccc(OCc2ccc3ccccc3n2)cc1)c1ccc(OCc2ccc3ccccc3n2)cc1`, the 50% inhibitory concentration (IC50) in the assay filed under Homo sapiens (Homo sapiens) was determined as 40 nM. The inhibition in vivo at 3 mg/kg in the assay with Rattus norvegicus is 0%.
The matching figures for `CC(O)(c1ccc(OCc2ccc3ccccc3n2)cc1)c1ccc(OCc2ccc3ccccc3n2)cc1`: 50 nM and 0%.
In the case of `C/C(=N\OC1CCC(c2ccc(OCc3ccc4ccccc4n3)cc2)(c2ccc(OCc3ccc4ccccc4n3)cc2)CC1)C(=O)O`, the IC50 in the assay listed under Homo sapiens (Homo sapiens) is 37 nM. Moreover, in the assay with Rattus norvegicus, the inhibition in vivo at 3 mg/kg is 48%.
Take `CC(CCCO)(c1ccc(OCc2ccc3ccccc3n2)cc1)c1ccc(OCc2ccc3ccccc3n2)cc1`: in the assay listed under Homo sapiens (Homo sapiens), the IC50 was 130 nM. The same compound registered an inhibition in vivo at 3 mg/kg in the assay with Rattus norvegicus of 7%.
Consider `O=C(O)CSC(c1ccc(OCc2ccc3ccccc3n2)cc1)c1ccc(OCc2ccc3ccccc3n2)cc1`, for which the IC50 in the assay listed under Homo sapiens (Homo sapiens) is 58 nM.
